Measurements taken from patent US20230099822A1, “MR1 LIGANDS AND PHARMACEUTICAL COMPOSITIONS FOR IMMUNOMODULATION” (UNIVERSITÄT BASEL, priority 2020, published 2023).
Blank lines part the entries; values can stand above or below the molecule they belong to.

What was measured:
[1] = biological target: T1, MR1 surface expression on THP-1 MR1 cells (Homo sapiens, UniProt Q95460); assay: Cell surface MR1 modulation on APCs (flow cytometry, anti-MR1 mAb 26.5); assay type: cell-based; settings: for MRI upregulation / MRI downmodulation: THP-1 MR1 cells, 3 h at 37° C., 3 doses each; for cell surface MR1 upregulation on APCs (in words): pulsed APC / THP1-MR1 cells
T1 construct: expressed in transfected cells; host or cells: THP-1 (ATCC TIB-202) stably expressing MR1 (THP1-MR1)
Protocol: […] […] For each condition, net MFI was calculated subtracting isotype MFI from anti-MR1 MFI and fold change of cells treated with synthetic molecules over cells treated with vehicle was calculated.

MR1T cell clones [2] = assay: Competition assay for stimulation of MR1T cell clones; assay type: cell-based, human; settings: APCs with compound 2 h (3 doses), then antigen at optimal concentration, cytokine ELISA
Protocol: As positive control for competition with antigens, Ac-6-FP was used (100 μM). Supernatants were collected after 24 h for cytokine analysis measured by ELISA.

MR1T cell clones [3] = assay: MR1T cell activation assay with THP-1 cells incubated with compounds (cytokine ELISA); assay type: cell-based, human; settings: for activation of MR1T clone MCA3C3 (IFN-γ): THP-1 cells pre-incubated with 250 μM of molecule (FIG. 8G, right); for number of MR1T clones significantly stimulated: fourteen randomly selected MR1T clones, THP-1 cells, IFN-γ (FIG. 12B); for activation of MR1T clone DGB129 (IFN-γ): THP-1 cells pre-incubated with 250 μM of molecule (FIG. 8G, middle)
Protocol: MR1T cells (5×10^4/well unless otherwise indicated) were co-cultured with the indicated APCs (10^5 cells per well unless otherwise indicated) for 18 h in 120 μL volume in triplicate.
When nucleobases, nucleosides or nucleotides (all 250 μM) and synthetic compounds M3ADE, OPdA, M1G or OPdC were used to stimulate T cells, the THP-1 cells (10^5/well) were cultured 2 h with the indicated molecules or medium only, prior to T-cell addition. When a single concentration of synthetic antigens was used, 100 μM OPdA, 100 μM OPdC and 13 μM M1G were used for all clones, while 100 μM M3ADE was used for all clones except DGB129, AC1A4, AC1B76 and AVA46 for which 1 μM was used.

MRI upregulation [1]: YES
Compound: Nc1nc2c(c(CN[C@H]3C=C[C@H](O)[C@@H]3O)cn2[C@@H]2O[C@H](CO)[C@@H](O)[C@H]2O)c(=O)[nH]1 [Cmpd 33, Queuosine]
Competition (MR1T cell clones [2]): YES

MRI upregulation [1]: YES
Compound: CO[C@@H]1[C@H](O)[C@@H](CO)O[C@H]1n1cnc2c(=O)[nH]c(N)nc21 [Cmpd 18, 2′-O-methylguanosine]
Competition (MR1T cell clones [2]): YES

MRI upregulation [1]: YES
Compound: CNc1nc2c(ncn2[C@@H]2O[C@H](CO)[C@@H](O)[C@H]2O)c(=O)[nH]1 [Cmpd 16, N2-methylguanosine]

MRI upregulation [1]: YES
Compound: O=C/C=C/Nc1ccn([C@H]2C[C@H](O)[C@@H](CO)O2)c(=O)n1 [Cmpd 38, N4-(3-oxo-1-propenyl)-2′-deoxycytidine]

MRI downmodulation [1]: YES
Compound: CC(C)=CCNc1ncnc2[nH]cnc12 [Cmpd 45, N6-(Δ2-Isopent-2-enyl) adenine]
Competition (MR1T cell clones [2]): YES

MRI upregulation [1]: YES
Compound: CCCCCC(=O)Cc1c[nH]c2nc3c(ncn3[C@H]3C[C@H](O)[C@@H](CO)O3)c(=O)n12 [Cmpd 25, 3-((2R,5R)-4-hydroxy-5-(hydroxymethyl)tetrahydrofuran-2-yl)-7-(2-oxoheptyl)-3H-imidazo[1,2-a]purin-9(5H)-one]

MRI upregulation [1]: YES
Compound: O=c1c2nc[nH]c2nc2ncccn12 [Cmpd 24, pyrimido(1,2-a)purin-10(1H)-one]
Reactive T cells isolated (MR1T cell clones [3]): YES | activation of MR1T clone AC1A4 by adduct (MR1T cell clones [3]): activated | response to THP-1 cells when adduct added (MR1T cell clones [3]; M1G or M3ADE added to clones QY1A16 and QY1C3, respectively): significant decreased response | number of MR1T clones significantly stimulated (MR1T cell clones [3]): three

MRI upregulation [1]: YES
Compound: COC(=O)N[C@@H](CCc1c(C)nc2n(C)c3c(ncn3[C@@H]3O[C@H](CO)[C@@H](O)[C@H]3O)c(=O)n12)C(=O)OC [Cmpd 34, Wybutosine]
Competition (MR1T cell clones [2]): YES

MRI upregulation [1]: YES
Compound: O=C/C=C/Nc1ncnc2c1ncn2[C@H]1C[C@H](O)[C@@H](CO)O1 (stereo in doubt) [Cmpd 12, N6-(3-oxo-1-propenyl)-2′-deoxyadenosine]
Reactive T cells isolated (MR1T cell clones [3]): YES

MRI upregulation [1]: YES
Compound: O=c1[nH]cc([C@@H]2O[C@H](CO)C(O)C2O)c(=O)[nH]1 (stereo in doubt) [Cmpd 36, 5-(3,4-dihydroxy-5-(hydroxymethyl)tetrahydrofuran-2-yl)pyrimidine-2,4(1H,3H)-dione]
Competition (MR1T cell clones [2]): YES

MRI upregulation [1]: YES
Compound: CNc1ncnc2c1ncn2[C@@H]1O[C@H](CO)[C@@H](O)[C@H]1O [Cmpd 42, N6-methyladenosine]
Competition (MR1T cell clones [2]): YES

MRI upregulation [1]: YES
Compound: CNc1nc2c(ncn2[C@H]2C[C@H](O)[C@@H](CO)O2)c(=O)[nH]1 [Cmpd 48, N2-Methyl-2′-deoxyguanosine]

MRI downmodulation [1]: YES
Compound: Cn1c(N)nc2[nH]cnc2c1=O [Cmpd 47, 1-Methylguanine]

MRI upregulation [1]: YES
Compound: CCCCCC(=O)Cc1cnc2c3ncn([C@H]4C[C@H](O)[C@@H](CO)O4)c3ncn12 [Cmpd 14, 1-(3-((2R,4S,5R)-4-hydroxy-5-(hydroxymethyl)tetrahydrofuran-2-yl)-3H-imidazo[2,1-i]purin-7-yl)heptan-2-one]

MRI upregulation [1]: YES
Compound: CSc1ncnc2c1ncn2[C@@H]1O[C@H](CO)[C@@H](O)[C@H]1O [Cmpd 40, (2R,3S,4R,5R)-2-(hydroxymethyl)-5-(6-(methylthio)-9H-purin-9-yl)tetrahydrofuran-3,4-diol]
Reactive T cells isolated (MR1T cell clones [3]): YES

cell surface MR1 upregulation on APCs (in words) [1]: upregulation
Compound: CN(C)c1ncnc2c1ncn2[C@@H]1O[C@H](CO)[C@@H](O)[C@H]1O [N6,N6-dimethyladenosine]

More lines, now with the values behind:

Compound: CN(C)c1ncnc2c1ncn2[C@@H]1O[C@H](CO)[C@@H](O)[C@H]1O [Cmpd 4, N6,N6-dimethyladenosine]
Reactive T cells isolated (MR1T cell clones [3]): YES | compound-specific MR1T cell activation (IFN-γ) (MR1T cell clones [3]; clones DGB129, MCA2E7 and TC5A87, THP-1 cells, overnight (FIG. 3)): activation | MRI upregulation [1]: YES

Compound: CO[C@@H]1[C@H](O)[C@@H](CO)O[C@H]1n1cnc2c(N)ncnc21 [Cmpd 3, 2′-O-methyladenosine]
Reactive T cells isolated (MR1T cell clones [3]): YES | MRI upregulation [1]: YES

Compound: Nc1nc2c(ncn2[C@H]2C[C@H](O)[C@@H](CO)O2)c(=O)[nH]1 [deoxyguanosine, reference compound]
activation of MR1T clone MCA3C3 (IFN-γ) (MR1T cell clones [3]): activated

Compound: CNc1ncnc2c1ncn2[C@H]1C[C@H](O)[C@@H](CO)O1 [Cmpd 53, N6-Methyl-2′-deoxyadenosine]
Reactive T cells isolated (MR1T cell clones [3]): YES

Compound: Cn1c(N)nc2c(ncn2[C@@H]2O[C@H](CO)[C@@H](O)[C@H]2O)c1=O [Cmpd 15, 1-methylguanosine]
Reactive T cells isolated (MR1T cell clones [3]): YES | Competition (MR1T cell clones [2]): YES

Compound: O=c1[nH]c(=O)c2ncn([C@@H]3O[C@H](CO)[C@@H](O)[C@H]3O)c2[nH]1 [xanthosine, reference compound]
activation of MR1T clone MCA3C3 (IFN-γ) (MR1T cell clones [3]): activated

Compound: Nc1nc2c(ncn2[C@@H]2O[C@H](CO)[C@@H](O)[C@H]2O)c(=O)[nH]1 [guanosine, reference compound]
activation of MR1T clone MCA3C3 (IFN-γ) (MR1T cell clones [3]): activated

Compound: Cn1cnc2c(ncn2[C@@H]2O[C@H](CO)[C@@H](O)[C@H]2O)c1=N [Cmpd 1, 1-methyladenosine]
MRI upregulation [1]: YES | Competition (MR1T cell clones [2]): YES

Compound: Cc1nc(N)c2ncn([C@@H]3O[C@H](CO)[C@@H](O)[C@H]3O)c2n1 [Cmpd 2, 2-methyladenosine]
MRI upregulation [1]: YES | cell surface MR1 upregulation on APCs (in words) [1]: upregulation | Competition (MR1T cell clones [2]): YES

Compound: C/C(=C\CNc1ncnc2c1ncn2[C@@H]1O[C@H](CO)C(O)C1O)CO (stereo partly drawn) [Cmpd 7, N6-(cis-hydroxyisopent-2-enyl) adenosine]
Competition (MR1T cell clones [2]): YES

Compound: O=C/C=C/Nc1ncnc2c1ncn2[C@H]1C[C@H](O)[C@@H](CO)O1 [Cmpd 12, N6-(3-oxo-1-propenyl)-2′-deoxyadenosine]
activation of MR1T clone AC1A4 by adduct (MR1T cell clones [3]): activated | activation of MR1T clone TC5A87 by adduct (MR1T cell clones [3]): activated | stimulation of MR1T clone QY1A16 by adduct (MR1T cell clones [3]): stimulated | number of MR1T clones significantly stimulated (MR1T cell clones [3]): eight

Compound: CSC[C@H]1O[C@@H](n2cnc3c(N)ncnc32)[C@H](O)[C@@H]1O [Cmpd 52, 5′-Deoxy-5′-(methylthio)adenosine]
Competition (MR1T cell clones [2]): YES

Compound: Cc1ncnc2nc[nH]c12 [Cmpd 43, 6-Methylpurine]
MRI downmodulation [1]: YES | Competition (MR1T cell clones [2]): YES

Compound: CSc1nc(NCC=C(C)C)c2ncn([C@@H]3O[C@H](CO)[C@@H](O)[C@H]3O)c2n1 [Cmpd 9, 2-methylthio-N6-isopent-2-enyladenosine]
Competition (MR1T cell clones [2]): YES

Compound: Nc1ncnc2c1ncn2[C@@H]1O[C@H](COP(=O)(O)OP(=O)(O)O)[C@@H](O)[C@H]1O [ADP, reference compound]
activation of MR1T clone MCA3C3 (IFN-γ) (MR1T cell clones [3]): activated

Compound: OC[C@H]1O[C@@H](n2cnc3c(O)ncnc32)[C@H](O)[C@@H]1O [inosine, reference compound]
activation of MR1T clone DGB129 (IFN-γ) (MR1T cell clones [3]): reacted

Compound: CN(C)c1ncnc2nc[nH]c12 [Cmpd 44, 6-(Dimethylamino)purine]
MRI upregulation [1]: YES | Competition (MR1T cell clones [2]): YES

Compound: O=C/C=C/Nc1ccn([C@H]2C[C@H](O)[C@@H](CO)O2)c(=O)n1 (stereo in doubt) [Cmpd 38, N4-(3-oxo-1-propenyl)-2′-deoxycytidine]
activation of MR1T clone TC5A87 by adduct (MR1T cell clones [3]): activated | stimulation of MR1T clone QY1A16 by adduct (MR1T cell clones [3]): stimulated | number of MR1T clones significantly stimulated (MR1T cell clones [3]): three

Compound: C[n+]1cn([C@@H]2O[C@H](CO)[C@@H](O)[C@H]2O)c2nc(N)[nH]c(=O)c21 [Cmpd 17, 7-methylguanosine]
Reactive T cells isolated (MR1T cell clones [3]): YES | Competition (MR1T cell clones [2]): YES

Compound: CSc1nc(NC/C=C(\C)CO)c2ncn([C@@H]3O[C@H](CO)C(O)C3O)c2n1 (stereo partly drawn) [Cmpd 8, 2-methylthio-N6-(cis-hydroxyisopent-2-enyl) adenosine]
Reactive T cells isolated (MR1T cell clones [3]): YES | MRI upregulation [1]: YES

Compound: Nc1nc2nc[nH]c2c(=O)[nH]1 [guanine, reference compound]
activation of MR1T clone MCA3C3 (IFN-γ) (MR1T cell clones [3]): activated

Compound: OCCNc1ncnc2c1ncn2[C@H]1C[C@H](O)[C@@H](CO)O1 [Cmpd 54, N6-(2-Hydroxyethyl)-2′-deoxyadenosine]
Reactive T cells isolated (MR1T cell clones [3]): YES

Compound: CC(=O)C=O [MG, methylglyoxal, reference compound]
MR1T-cell stimulation by GLO1-deficient compared to wild-type THP-1 cells (MR1T cell clones [3]; clone DGB129, Methylglyoxal (FIG. 9I)): significantly increased | MR1T-cell stimulation with GLO1-overexpressing THP-1 cells (MR1T cell clones [3]; clone DGB129, Methylglyoxal (FIG. 9J)): failed to induce

Compound: Nc1ncnc2c1ncn2[C@H]1C[C@H](O)[C@@H](CO)O1 [deoxyadenosine, reference compound]
activation of MR1T clone DGB129 (IFN-γ) (MR1T cell clones [3]): reacted | MR1T reactivity using GLO1-deficient THP-1 cells as APCs (MR1T cell clones [3]; clone DGB129, deoxyadenosine (FIG. 9K)): increased | MR1T reactivity using GLO1-overexpressing THP-1 cells (MR1T cell clones [3]; clone DGB129, deoxyadenosine (FIG. 9L)): decreased

Compound: Nc1ncnc2nc[nH]c12 [adenine, reference compound]
activation of MR1T clone DGB129 (IFN-γ) (MR1T cell clones [3]): reacted

Compound: Nc1ncnc2c1ncn2[C@@H]1O[C@H](CO)[C@@H](O)[C@H]1O [adenosine, reference compound]
activation of MR1T clone DGB129 (IFN-γ) (MR1T cell clones [3]): reacted
